Where two headings read alike, the source gives them in different places.
Target: T1, full-length SARM1 (FL-SARM1) (Homo sapiens, UniProt Q6SZW1)
T1 sequence (Q6SZW1 28-724): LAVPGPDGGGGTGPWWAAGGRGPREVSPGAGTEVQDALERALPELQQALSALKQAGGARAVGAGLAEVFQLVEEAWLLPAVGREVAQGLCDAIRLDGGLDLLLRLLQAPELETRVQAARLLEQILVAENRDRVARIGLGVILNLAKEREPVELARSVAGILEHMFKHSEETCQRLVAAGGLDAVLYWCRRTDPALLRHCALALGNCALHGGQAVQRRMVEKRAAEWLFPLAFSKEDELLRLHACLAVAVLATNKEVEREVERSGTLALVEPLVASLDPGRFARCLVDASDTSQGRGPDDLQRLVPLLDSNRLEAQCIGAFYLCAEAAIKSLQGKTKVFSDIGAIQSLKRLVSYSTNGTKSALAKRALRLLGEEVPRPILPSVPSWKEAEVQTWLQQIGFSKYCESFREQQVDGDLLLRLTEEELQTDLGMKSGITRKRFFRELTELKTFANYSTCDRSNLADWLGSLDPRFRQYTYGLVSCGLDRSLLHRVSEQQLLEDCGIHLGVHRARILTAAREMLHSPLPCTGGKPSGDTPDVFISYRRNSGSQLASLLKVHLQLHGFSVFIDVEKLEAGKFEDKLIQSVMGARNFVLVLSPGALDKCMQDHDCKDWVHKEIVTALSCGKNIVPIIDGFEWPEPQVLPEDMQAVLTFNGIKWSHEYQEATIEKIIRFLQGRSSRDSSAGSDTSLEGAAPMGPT
Assay: FL-SARM1 cellular lysate assay (NAD/NADH-Glo detection of remaining NAD+, NMN-activated)

[1] = Activity (IC50 class), 11 point curve
[2] = Activity (μM) (IC50), 11 point curve
[3] = read-out: Activity (IC50 class), 11 point curve

Row | Compound | IC50 [1] [µM] | IC50 [2] [µM] | IC50 [3] [µM]
1 | Cc1ccc(NC(=O)N2CCCC2C2CC2)cc1-c1ccccn1 (racemic) [Example 92, 2-cyclopropyl-N-(4-methyl-3-pyridin-2-ylphenyl)pyrrolidine-1-carboxamide] | 1 to 10 | 2.3 | 
2 | Cc1ccc(NC(=O)N2CCCC2c2nccn2C)cc1-c1ccccn1 (racemic) [Example 93, 2-(1-methylimidazol-2-yl)-N-(4-methyl-3-pyridin-2-ylphenyl)pyrrolidine-1-carboxamide] | > 10 | 21 | 
3 | CC[C@H]1C[C@@H]1C(=O)Nc1ccc(C)c(-c2ccccn2)c1 (racemic) [Example 108, trans-2-ethyl-N-(4-methyl-3-pyridin-2-ylphenyl)cyclopropane-1-carboxamide] | 1 to 10 | 1.1 | 
4 | Cc1ccc(NC(=O)C2CCC2(F)F)cc1-c1ccccn1 (racemic) [Example 111, 2,2-difluoro-N-(4-methyl-3-pyridin-2-ylphenyl)cyclobutane-1-carboxamide] | 1 to 10 | 2.8 | 
5 | Cc1ccc(NC(=O)C2CCC23CC3)cc1-c1ccccn1 (racemic) [Example 113, N-(4-methyl-3-pyridin-2-ylphenyl)spiro[2.3]hexane-6-carboxamide] | 1 to 10 | 2.5 | 
6 | Cc1ccc(NC(=O)[C@@H]2C[C@H]3C[C@H]32)cc1-c1ccccn1 (racemic) [Example 116, trans-N-(4-methyl-3-pyridin-2-ylphenyl)bicyclo[2.1.0]pentane-2-carboxamide] | 1 to 10 | 7.4 | 
7 | Cc1ccc(NC(=O)C(C)(O)C2CCC2)cc1-c1ccccn1 (racemic) [Example 118, 2-cyclobutyl-2-hydroxy-N-(4-methyl-3-pyridin-2-ylphenyl)propanamide] | 1 to 10 | 6.1 | 
8 | Cc1ccc(NC(=O)[C@@H]2C[C@@H]2C(F)(F)F)cc1-c1ccccn1 (racemic) [Example 124, cis-N-(4-methyl-3-pyridin-2-ylphenyl)-2-(trifluoromethyl)cyclopropane-1-carboxamide] | 1 to 10 | 3.1 | 
9 | Cc1ccc(NC(=O)[C@H]2C[C@@H]2C(F)(F)F)cc1-c1ccccn1 (racemic) [Example 128, trans-N-(4-methyl-3-pyridin-2-ylphenyl)-2-(trifluoromethyl)cyclopropane-1-carboxamide] | 1 to 10 | 4.3 | 
10 | Cc1ccc(NC(=O)[C@H]2[C@H](C)C2(F)F)cc1-c1ccccn1 (racemic) [Example 135, trans-2,2-difluoro-3-methyl-N-(4-methyl-3-pyridin-2-ylphenyl)cyclopropane-1-carboxamide] | 1 to 10 | 3.3 | 
11 | Cc1ccc(NC(=O)C(C)C(F)(F)F)cc1-c1ncccn1 (racemic) [Example 169, 3,3,3-trifluoro-2-methyl-N-(4-methyl-3-pyrimidin-2-ylphenyl)propanamide] | > 10 | 21 | 
12 | Cc1cc(F)c(NC(=O)N2[C@@H]3C[C@@H](C)C[C@@]2(C(C)(C)O)C3)cc1-c1ncc(F)cn1 (racemic) [Example 183, cis-N-(2-fluoro-5-(5-fluoropyrimidin-2-yl)-4-methylphenyl)-1-(2-hydroxypropan-2-yl)-3-methyl-6-azabicyclo[3.1.1]heptane-6-carboxamide] |  | 0.06 | 0.0001 to 1
13 | Cc1ccc(NC(=O)N2CCCC(C)CC2)cc1-c1ncc(F)cn1 (racemic) [Example 213, N-(3-(5-fluoropyrimidin-2-yl)-4-methylphenyl)-4-methylazepane-1-carboxamide] |  | 0.2 | 0.0001 to 1
14 | Cc1ccc(NC(=O)N(C)C(c2ncccn2)C2CCC2)cc1-c1ncc(F)cn1 (racemic) [Example 214, 1-(cyclobutyl(pyrimidin-2-yl)methyl)-3-(3-(5-fluoropyrimidin-2-yl)-4-methylphenyl)-1-methylurea] | 1 to 10 | 3.9 | 
15 | Cc1ccc(NC(=O)N2C[C@@H]3CCC[C@@H]32)cc1-c1ncc(F)cn1 (racemic) [Example 222, N-[3-(5-fluoropyrimidin-2-yl)-4-methylphenyl]-6-azabicyclo[3.2.0]heptane-6-carboxamide] | 1 to 10 | 3.4 | 
16 | Cc1ccc(NC(=O)N2CCOCCC2C)cc1-c1ncc(F)cn1 (racemic) [Example 225, N-[3-(5-fluoropyrimidin-2-yl)-4-methylphenyl]-5-methyl-1,4-oxazepane-4-carboxamide] | > 10 | 32 | 
17 | Cc1ccc(NC(=O)N2C[C@@H]3CCCC[C@@H]32)cc1-c1ncc(F)cn1 (racemic) [Example 226, N-[3-(5-fluoropyrimidin-2-yl)-4-methylphenyl]-7-azabicyclo[4.2.0]octane-7-carboxamide] | 1 to 10 | 1.5 | 
18 | Cc1ccc(NC(=O)N2[C@@H]3C[C@@H](C)C[C@@]2(COC(F)F)C3)cc1-c1ncc(F)cn1 (racemic) [Example 227, cis-1-(difluoromethoxymethyl)-N-[3-(5-fluoropyrimidin-2-yl)-4-methylphenyl]-3-methyl-6-azabicyclo[3.1.1]heptane-6-carboxamide] |  | 0.02 | 0.0001 to 1
19 | Cc1ccc(NC(=O)[C@H]2C[C@@H]2c2ccccc2)cc1-c1ncc(F)cn1 (racemic) [Example 257, trans-N-(3-(5-fluoropyrimidin-2-yl)-4-methylphenyl)-2-phenylcyclopropane-1-carboxamide] | > 10 | 30 | 
20 | Cc1ccc(NC(=O)C2CCC[C@@H](C)N2c2ccccn2)cc1-c1ncc(F)cn1 (mixture of isomers) [Example 258, cis-N-(3-(5-fluoropyrimidin-2-yl)-4-methylphenyl)-6-methyl-1-(pyridin-2-yl)piperidine-2-carboxamide] | 1 to 10 | 2.4 | 
21 | Cc1ccc(NC(=O)[C@@H]2CO[C@H](C(F)(F)F)CN2c2ccccn2)cc1-c1ncc(F)cn1 (racemic) [Example 272, cis-N-(3-(5-fluoropyrimidin-2-yl)-4-methylphenyl)-4-(pyridin-2-yl)-6-(trifluoromethyl) morpholine-3-carboxamide] | 1 to 10 | 1.1 | 
22 | Cc1ccc(NC(=O)[C@H]2CC[C@@H](C3CC3)N2c2ccccn2)cc1-c1ncc(F)cn1 (racemic) [Example 273, cis-5-cyclopropyl-N-(3-(5-fluoropyrimidin-2-yl)-4-methylphenyl)-1-(pyridin-2-yl)pyrrolidine-2-carboxamide] | 1 to 10 | 1.9 | 
23 | Cc1ccc(NC(=O)[C@@H]2CC[C@@H](C3CC3)N2c2ccccn2)cc1-c1ncc(F)cn1 (racemic) [Example 274, trans-5-cyclopropyl-N-(3-(5-fluoropyrimidin-2-yl)-4-methylphenyl)-1-(pyridin-2-yl)pyrrolidine-2-carboxamide] | 1 to 10 | 1.2 | 
24 | Cc1ccc(NC(=O)[C@@H]2C[C@H]3CC[C@@H]2N3c2ccccn2)cc1-c1ncc(F)cn1 (racemic) [Example 275, cis-N-(3-(5-fluoropyrimidin-2-yl)-4-methylphenyl)-7-(pyridin-2-yl)-7-azabicyclo[2.2.1]heptane-2-carboxamide] | 1 to 10 | 4.9 | 
25 | Cc1ccc(NC(=O)C2CCC(=O)N2c2ccccn2)cc1-c1ncc(F)cn1 (racemic) [Example 278, N-[3-(5-fluoropyrimidin-2-yl)-4-methylphenyl]-5-oxo-1-pyridin-2-ylpyrrolidine-2-carboxamide] | > 10 | 17 | 
26 | Cc1ccc(NC(=O)[C@@H]2CN(CC(F)(F)F)C[C@H]2c2ccccn2)cc1-c1ncc(F)cn1 (racemic) [Example 280, trans-N-[3-(5-fluoropyrimidin-2-yl)-4-methylphenyl]-4-pyridin-2-yl-1-(2,2,2-trifluoroethyl)pyrrolidine-3-carboxamide] | > 10 | 28 | 
27 | Cc1ccc(NC(=O)[C@H]2C[C@@H]2C2CC2)cc1-c1cccnn1 (racemic) [Example 283, trans-2-cyclopropyl-N-(4-methyl-3-pyridazin-3-ylphenyl)cyclopropane-1-carboxamide] | > 10 | 11 | 
28 | Cc1ccc(NC(=O)[C@@H]2C[C@@H]2C2CC2)cc1-c1cccnn1 (racemic) [Example 284, cis-2-cyclopropyl-N-(4-methyl-3-pyridazin-3-ylphenyl)cyclopropane-1-carboxamide] | 1 to 10 | 1.8 | 
29 | Cc1ccc(NC(=O)C2CCc3cccnc32)cc1-c1ncc(F)cn1 (racemic) [Example 290, N-[3-(5-fluoropyrimidin-2-yl)-4-methylphenyl]-6,7-dihydro-5H-cyclopenta[b]pyridine-7-carboxamide] | > 10 | 17 | 
30 | Cc1ccc(NC(=O)C2CC23CCC3)cc1-c1cccnn1 (racemic) [Example 293, N-(4-methyl-3-pyridazin-3-ylphenyl)spiro[2.3] hexane-2-carboxamide] | 1 to 10 | 2.4 | 

Reference: patent publication US20250171462A1 (NICO Therapeutics, Inc., priority 2022, published 2025)
